Data reported in ChEMBL document CHEMBL5223085, “Agonist Lock Touched and Untouched Retinoic Acid Receptor-Related Orphan Receptor-γt (RORγt) Inverse Agonists: Classification Based on the Molecular Mechanisms of Action” (J Med Chem, 2021).

Assays:
[1] = molecular target: T1, Nuclear receptor ROR-gamma (Homo sapiens, UniProt P51449); assay: Inverse agonist activity against human RORgammat by FRET assay
T1 sequence (P51449 whole entry): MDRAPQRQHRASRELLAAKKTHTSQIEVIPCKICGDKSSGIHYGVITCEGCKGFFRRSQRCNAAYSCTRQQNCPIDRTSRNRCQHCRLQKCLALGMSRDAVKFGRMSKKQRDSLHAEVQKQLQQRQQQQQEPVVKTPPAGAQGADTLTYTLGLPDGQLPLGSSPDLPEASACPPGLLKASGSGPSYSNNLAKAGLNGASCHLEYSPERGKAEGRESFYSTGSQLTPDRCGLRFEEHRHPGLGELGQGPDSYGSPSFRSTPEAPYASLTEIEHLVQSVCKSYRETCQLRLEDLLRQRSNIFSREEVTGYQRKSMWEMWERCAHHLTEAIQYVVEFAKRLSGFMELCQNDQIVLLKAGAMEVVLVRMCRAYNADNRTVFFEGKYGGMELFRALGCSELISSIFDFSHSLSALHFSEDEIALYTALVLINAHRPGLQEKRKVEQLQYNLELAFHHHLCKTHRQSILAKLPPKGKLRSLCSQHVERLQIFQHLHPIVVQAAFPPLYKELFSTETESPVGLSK

[2] = molecular target: T1, Nuclear receptor ROR-gamma; assay: Displacement of 25-[26,27-3H2]-hydroxycholesterol from RORgammat (unknown origin) assessed as inhibition constant by scintillation proximity assay

SMILES	IC50 [1] [nM]	Ki [2] [nM]
Cc1ccc([C@@H](NC(=O)Cc2ccc3oc(C(O)c4c(C)noc4C)cc3c2)c2ccccc2)c(C)c1 (stereo partly drawn)	5	–
Cc1ccc(C(NC(=O)Cc2ccc(OCc3c(C)noc3C)cc2)c2ccccc2)c(C)c1 (stereo not drawn)	3	–
CCS(=O)(=O)c1ccc(CC(=O)Nc2cnc3c(c2)CN(C[C@H]2CC[C@H](C(F)(F)F)CC2)[C@H]3C(C)C)nc1	–	3.7
